Experiments:
[1] = cited from earlier work
[2] = tested on: bovine endothelial cells (CPAE) [소내피세포(CPAE)]; format: cell-based; details: 24 h
[3] = tested on: phosphodiesterase I from snake venom (Crotalus atrox), PDE type IV [포스포디에스테라제 I은 뱀독 (Crotalus atrox) 유래 PDE 타입 IV]; experiment: Phosphodiesterase inhibition ([3H] cAMP SPA); format: biochemical
[4] = tested on: bovine vascular endothelial cells (CPAE cell line) [소혈관 내피세포(CPAE cell line)]; experiment: NO production in CPAE endothelial cells (total nitrate/nitrite, Nims method); format: cell-based
[5] = tested on: phosphodiesterase (PDE) [포스포디에스터라제]; experiment: PDE inhibition in combination with existing PDE inhibitors; format: biochemical; details: existing PDE inhibitor combined with DX fraction (20, 10, 4 μg); in words

## CCCc1nc(C)c2c(=O)[nH]c(-c3cc(S(=O)(=O)N4CCN(CC)CC4)ccc3OCC)nn12 [레비트라]
[1]; background
  duration of erection: ≤ 36 h

## 5-{6-(디메틸아미노)-9H-푸린-9-일}-테트라히드로-4'-푸란-3'-올-5'-o-테트라파이로(tetrafyro)-2H-피란-3'',4'',5''-트리올 [RPC-IV]
[2]
  cell viability: 86.9%
[3]; 0, 2, 10, 20 μg, in words
  phosphodiesterase inhibition: 용량의존적 저해
[3]; PDE [3H] cAMP SPA
  IC50: 0.88 µg/mL
[4]; RP-HPLC fractions, absorbance at 540 nm
  NO production (540 nm): 1.426
[4]; chromatographic fractions, in words
  NO activity: 최대로 방출

## COc1cc2c(cc1OC)-c1c/c(=N\c3c(C)cc(C)cc3C)n(C)c(=O)n1CC2 [Trequinsin, 하이드로클로라이드]
[5]
  PDE inhibition on combined administration: 상승작용

## CN1CC(=O)N2[C@H](c3ccc4c(c3)OCO4)c3[nH]c4ccccc4c3C[C@@H]2C1=O [시알리스]
[1]; background
  duration of drug effect: ≤ 36 h

## CCCOc1ccccc1-c1nc2nn[nH]c2c(=O)[nH]1 [자프리나스트(zaprinast)]
[1]; compared with Viagra, Trigo-Rocha 1993, Taher 1994
  erection induction: 비아그라보다 다소 낮은 정도로 발기를 유도

Reference: patent publication KR20070037041A, “누에 수번데기로부터 아데노신 유도체 화합물을 정제하는방법 및 아데노신 유도체 화합물을 포함하는 발기부전치료용 조성물” (대한민국(관리부서:농촌진흥청장), priority 2005, dated 2007)
